From patent publication US9796696B2, “Substituted arylcyclopentenes as therapeutic agents” (Allergan, Inc., priority 2007, dated 2017)

Biological target: T1, EP2 (Homo sapiens, UniProt P43116)
T1 sequence (P43116 whole entry): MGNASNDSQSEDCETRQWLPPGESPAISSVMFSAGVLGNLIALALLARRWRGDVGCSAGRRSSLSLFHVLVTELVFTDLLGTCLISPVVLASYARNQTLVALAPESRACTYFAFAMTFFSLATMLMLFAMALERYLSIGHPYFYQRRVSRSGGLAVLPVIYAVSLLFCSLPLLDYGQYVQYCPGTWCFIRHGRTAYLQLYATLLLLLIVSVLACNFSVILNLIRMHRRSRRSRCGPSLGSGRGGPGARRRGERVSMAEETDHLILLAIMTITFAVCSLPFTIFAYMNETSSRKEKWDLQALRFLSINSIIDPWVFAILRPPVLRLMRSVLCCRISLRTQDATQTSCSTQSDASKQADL
Experiment: EP2 Ki (in vitro testing)
Format: binding
Details: not given
Description: (§1) U.S. patent application Ser. No. 11/553,143, filed on Oct. 26, 2006, describes the methods used to obtain the in vitro data in the tables below.
Molecule `CCCCC[C@@H](O)c1ccc(C2=C(Cl)CC[C@@H]2CCCc2ccc(C(=O)O)s2)cc1` has a Ki of 5 nM.
Molecule `CCCCCC(O)c1ccc(C2=C(C)CC[C@@H]2CCCc2ccc(C(=O)O)s2)cc1` (stereo partly shown) [drawing 88] has a Ki of 16 nM.
With `CCCCCC(O)c1ccc(C2=C(CO)CC[C@@H]2CCCc2ccc(C(=O)O)s2)cc1` (stereo partly shown) [drawing 81] the Ki was 53 nM.
`CCCCC[C@H](O)c1ccc(C2=C(Cl)CC[C@@H]2CCCc2ccc(C(=O)O)s2)cc1` showed a Ki of 16 nM.

System: not listed separately
Experiment: In vivo testing, Max. ΔIOP, Max. hyperemia
Details: Conc. 0.003 g/100 mL
Description: (§2) U.S. Pat. No. 7,091,231 describes the methods used for these in vivo tests.
In the case of `CCCCCC(O)c1ccc(C2=C(C#N)CC[C@@H]2CCCc2ccc(C(=O)O)s2)cc1` (single isomer, unassigned) [Compound 3], the Max. hyperemia is reported as 1.3 and the “Max. ΔIOP (%)” value is reported as 35%.
With `CCCCCC(O)c1ccc(C2=C(C#N)CC[C@@H]2CCCc2ccc(C(=O)O)s2)cc1` (single isomer, unassigned) [Compound 4] the Max. hyperemia was 1.4 and the “Max. ΔIOP (%)” value was 35%.

Same assay, conditions: Conc. 0.01 g/100 mL
For `CCCCCC(O)c1ccc(C2=C(Cl)CC[C@@H]2CCCc2ccc(C(=O)O)s2)cc1` (stereo partly shown) [Compound 1], the Max. hyperemia was 1.7 and the “Max. ΔIOP (%)” value was 39%.
For `CCCCC[C@H](O)c1ccc(C2=CCC[C@@H]2CCCc2ccc(C(=O)O)s2)cc1` [Compound 6], the Max. hyperemia was 2.0 and the “Max. ΔIOP (%)” value was 32%.
With `CCCCCC(O)c1ccc(C2=C(C#N)CC[C@@H]2CCCc2ccc(C(=O)OCCO)s2)cc1` (stereo partly shown) [Compound 5] the Max. hyperemia was 1.9 and the “Max. ΔIOP (%)” value was 41%.
In the case of `CCCCC[C@@H](O)c1ccc(C2=CCC[C@@H]2CCCc2ccc(C(=O)O)s2)cc1` [Compound 7], the Max. hyperemia is reported as 1.8 and the “Max. ΔIOP (%)” value is reported as 37%.

Same assay, conditions: Conc. 0.1 g/100 mL
For `CCCCCC(O)c1ccc(C2=C(Cl)CC[C@@H]2CCCc2ccc(C(=O)OC(C)C)s2)cc1` (stereo partly shown) [Compound 2], the Max. hyperemia was 1.7 and the “Max. ΔIOP (%)” value was 21%.

Biological target: T2, EP4 (Homo sapiens, UniProt P35408)
T2 sequence (P35408 whole entry): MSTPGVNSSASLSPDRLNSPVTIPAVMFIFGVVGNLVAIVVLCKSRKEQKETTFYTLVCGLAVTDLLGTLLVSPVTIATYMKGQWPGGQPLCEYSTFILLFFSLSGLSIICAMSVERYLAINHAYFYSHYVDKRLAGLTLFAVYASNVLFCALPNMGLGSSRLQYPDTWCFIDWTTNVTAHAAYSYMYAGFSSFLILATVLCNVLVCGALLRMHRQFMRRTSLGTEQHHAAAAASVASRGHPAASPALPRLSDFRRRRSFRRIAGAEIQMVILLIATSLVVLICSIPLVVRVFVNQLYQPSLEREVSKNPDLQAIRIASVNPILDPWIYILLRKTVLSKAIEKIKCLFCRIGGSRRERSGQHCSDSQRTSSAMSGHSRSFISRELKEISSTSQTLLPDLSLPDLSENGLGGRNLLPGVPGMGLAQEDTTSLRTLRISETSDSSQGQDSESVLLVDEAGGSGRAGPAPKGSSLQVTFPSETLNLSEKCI
Experiment: EP4 Ki (in vitro testing)
Format: binding
Details: read-out: EP4 Ki EC50
Description: as §1
For `CCCCC[C@@H](O)c1ccc(C2=C(Cl)CC[C@@H]2CCCc2ccc(C(=O)O)s2)cc1`, the Ki was 914 nM.
For `CCCCCC(O)c1ccc(C2=C(C)CC[C@@H]2CCCc2ccc(C(=O)O)s2)cc1` (stereo partly shown) [drawing 88], the Ki was > 10000 nM.
`CCCCCC(O)c1ccc(C2=C(CO)CC[C@@H]2CCCc2ccc(C(=O)O)s2)cc1` (stereo partly shown) [drawing 81] showed a Ki of 1540 nM.
In the case of `CCCCC[C@H](O)c1ccc(C2=C(Cl)CC[C@@H]2CCCc2ccc(C(=O)O)s2)cc1`, the Ki is reported as 3680 nM.

Biological target: T1, EP2
Experiment: EP2 cAMP EC50 (in vitro testing)
Format: cell-based
Details: not given
Description: as §1
In the case of `CCCCC[C@@H](O)c1ccc(C2=C(Cl)CC[C@@H]2CCCc2ccc(C(=O)O)s2)cc1`, the EC50 is reported as 0.2 nM.
Work on `CCCCCC(O)c1ccc(C2=C(C)CC[C@@H]2CCCc2ccc(C(=O)O)s2)cc1` (stereo partly shown) [drawing 88] yielded an EC50 of 4 nM.
`CCCCCC(O)c1ccc(C2=C(CO)CC[C@@H]2CCCc2ccc(C(=O)O)s2)cc1` (stereo partly shown) [drawing 81] showed an EC50 of 48 nM.
`CCCCC[C@H](O)c1ccc(C2=C(Cl)CC[C@@H]2CCCc2ccc(C(=O)O)s2)cc1` gave an EC50 of 0.6 nM.

Biological target: T3, EP3 (Homo sapiens, UniProt P43115)
T3 sequence (P43115 1-390): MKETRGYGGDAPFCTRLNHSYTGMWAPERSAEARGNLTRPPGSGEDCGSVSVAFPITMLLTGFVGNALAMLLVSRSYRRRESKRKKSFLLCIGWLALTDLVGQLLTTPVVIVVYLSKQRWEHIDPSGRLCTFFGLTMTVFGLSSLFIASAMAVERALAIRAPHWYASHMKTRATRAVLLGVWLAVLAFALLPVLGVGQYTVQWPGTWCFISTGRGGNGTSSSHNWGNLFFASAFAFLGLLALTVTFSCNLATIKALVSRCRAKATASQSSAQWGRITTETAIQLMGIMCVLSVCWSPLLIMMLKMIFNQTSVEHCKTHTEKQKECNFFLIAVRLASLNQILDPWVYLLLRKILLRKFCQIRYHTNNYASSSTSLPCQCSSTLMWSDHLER
Experiment: Other receptors Ca2+ EC50: EP3
Format: cell-based
Details: NA not defined in the patent
Description: as §1
For `CCCCCC(O)c1ccc(C2=C(C)CC[C@@H]2CCCc2ccc(C(=O)O)s2)cc1` (stereo partly shown) [drawing 88], the EC50 was 7340 nM.
With `CCCCCC(O)c1ccc(C2=C(CO)CC[C@@H]2CCCc2ccc(C(=O)O)s2)cc1` (stereo partly shown) [drawing 81] the EC50 was 6980 nM.
`CCCCC[C@H](O)c1ccc(C2=C(Cl)CC[C@@H]2CCCc2ccc(C(=O)O)s2)cc1` showed an EC50 of 1490 nM.

Biological target: T2, EP4
Experiment: EP4 Ca2+ EC50 (in vitro testing)
Format: cell-based
Details: not given
Description: as §1
For `CCCCC[C@@H](O)c1ccc(C2=C(Cl)CC[C@@H]2CCCc2ccc(C(=O)O)s2)cc1`, the EC50 was > 10000 nM.
With `CCCCCC(O)c1ccc(C2=C(C)CC[C@@H]2CCCc2ccc(C(=O)O)s2)cc1` (stereo partly shown) [drawing 88] the EC50 was 955 nM.
With `CCCCCC(O)c1ccc(C2=C(CO)CC[C@@H]2CCCc2ccc(C(=O)O)s2)cc1` (stereo partly shown) [drawing 81] the EC50 was > 10000 nM.
For `CCCCC[C@H](O)c1ccc(C2=C(Cl)CC[C@@H]2CCCc2ccc(C(=O)O)s2)cc1`, the EC50 was > 10000 nM.

Biological target: T1, EP2
Experiment: EP2 Ca2+ EC50 (in vitro testing)
Format: cell-based
Details: not given
Description: as §1
With `CCCCC[C@@H](O)c1ccc(C2=C(Cl)CC[C@@H]2CCCc2ccc(C(=O)O)s2)cc1` the EC50 was 83 nM.
In the case of `CCCCCC(O)c1ccc(C2=C(C)CC[C@@H]2CCCc2ccc(C(=O)O)s2)cc1` (stereo partly shown) [drawing 88], the EC50 is reported as 193 nM.
In the case of `CCCCCC(O)c1ccc(C2=C(CO)CC[C@@H]2CCCc2ccc(C(=O)O)s2)cc1` (stereo partly shown) [drawing 81], the EC50 is reported as 119 nM.
`CCCCC[C@H](O)c1ccc(C2=C(Cl)CC[C@@H]2CCCc2ccc(C(=O)O)s2)cc1` showed an EC50 of 355 nM.

System: not listed separately
Experiment: In vivo testing, Max. ΔIOP
Details: 0.1% dose
Description: as §2
In the case of `CCCCCC(O)c1ccc(C2=C(Cl)CC[C@@H]2CCCc2ccc(C(=O)OC(C)C)s2)cc1` (stereo partly shown) [Compound 2], the “Max. ΔIOP (%)” value is reported as 26%.
In the case of `CCCCCC(O)c1ccc(C2=C(Cl)CC[C@@H]2CCCc2ccc(C(=O)O)s2)cc1` (stereo partly shown) [Compound 1], the “Max. ΔIOP (%)” value is reported as 62 (0.1% dose).

Same assay, conditions: Conc. 0.003 g/100 mL
With `CCCCCC(O)c1ccc(C2=C(C#N)CC[C@@H]2CCCc2ccc(C(=O)O)s2)cc1` (single isomer, unassigned) [Compound 3] the “Max. ΔIOP (%)” value was 46%.
For `CCCCCC(O)c1ccc(C2=C(C#N)CC[C@@H]2CCCc2ccc(C(=O)O)s2)cc1` (single isomer, unassigned) [Compound 4], the “Max. ΔIOP (%)” value was 39%.

Same assay, conditions: Conc. 0.01 g/100 mL
In the case of `CCCCC[C@H](O)c1ccc(C2=CCC[C@@H]2CCCc2ccc(C(=O)O)s2)cc1` [Compound 6], the “Max. ΔIOP (%)” value is reported as 31%.
In the case of `CCCCCC(O)c1ccc(C2=C(C#N)CC[C@@H]2CCCc2ccc(C(=O)OCCO)s2)cc1` (stereo partly shown) [Compound 5], the “Max. ΔIOP (%)” value is reported as 53%.
